{"source": "paper PMC8524809", "about": "(Molecular Therapy, 2021)", "key": {"[1]": {"system": "SARS-CoV-2 S pseudovirion alpha variant", "format": "cell-based", "settings": "similar to the WT"}, "[2]": {"system": "SARS-CoV-2 S pseudovirion beta variant", "format": "cell-based", "settings": "similar to the WT"}}, "data": [{"molecule": "CC(C)(O)c1ccccc1CC[C@@H](SCC1(CC(=O)O)CC1)c1cccc(/C=C/c2ccc3ccc(Cl)cc3n2)c1", "note": "[montelukast]", "values": [{"measurement": "Inhibition of pseudovirus entry", "setting": "[1]", "result": "increase in a dose-dependent manner"}, {"measurement": "Inhibition of pseudovirus entry", "setting": "[2]", "result": "increase in a dose-dependent manner"}]}]}
